Assay results taken from ChEMBL document CHEMBL1201862, “PubChem BioAssay data set” (2004).
Activity calls are given as the source filed them.

Assays:
[1] = luciferase reporter signal suppression in cells – H4 neuroglioma cells, luminescence, dose response (AID 1990); format: functional, cell-based
[2] = test system: Streptococcus sp. 'group A'; assay: Streptococcus pyogenes SK(-)GAS viability under kanamycin – luminescence, BacTiterGlo, confirmation, counter-screen for streptokinase expression inhibitor project, dose response (AID 1900); format: functional, organism-based
[3] = fluconazole-exposed Candida albicans growth modulators – fluorescence, retest, confirmation (AID 2467); format: functional, cell-based
[4] = microbe, parasite or virus in culture; format: functional; details: Mycobacterium tuberculosis
[5] = biological target: T1, Bcl-2-related protein A1 (Mus musculus, UniProt Q07440); format: functional;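 note: confirmatory dose–response counterscreen on Bfl-1, used to check hits from a UBC13 polyubiquitin inhibitor campaign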
T1 sequence (Q07440 whole entry): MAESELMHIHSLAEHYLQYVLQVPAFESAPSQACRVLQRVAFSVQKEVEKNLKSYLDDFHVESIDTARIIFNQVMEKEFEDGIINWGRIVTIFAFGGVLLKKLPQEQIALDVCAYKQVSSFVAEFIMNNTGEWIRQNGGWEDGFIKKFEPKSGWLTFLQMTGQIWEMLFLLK

[6] = biological target: T2, Ubiquitin-conjugating enzyme E2 N (Homo sapiens, UniProt P61088); format: functional;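 note: Dose-response confirmation in a TR-FRET assay detecting UBC13-driven polyubiquitin chain formation, inhibition measured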
T2 sequence (P61088 whole entry): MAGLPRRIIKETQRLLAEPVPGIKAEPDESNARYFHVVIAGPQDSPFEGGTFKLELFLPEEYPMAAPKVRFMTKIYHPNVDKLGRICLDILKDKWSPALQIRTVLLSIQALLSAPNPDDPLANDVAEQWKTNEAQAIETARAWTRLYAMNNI

[7] = biological target: T3, Apoptotic protease-activating factor 1 (Homo sapiens, UniProt O14727); format: functional
T3 sequence (O14727 whole entry): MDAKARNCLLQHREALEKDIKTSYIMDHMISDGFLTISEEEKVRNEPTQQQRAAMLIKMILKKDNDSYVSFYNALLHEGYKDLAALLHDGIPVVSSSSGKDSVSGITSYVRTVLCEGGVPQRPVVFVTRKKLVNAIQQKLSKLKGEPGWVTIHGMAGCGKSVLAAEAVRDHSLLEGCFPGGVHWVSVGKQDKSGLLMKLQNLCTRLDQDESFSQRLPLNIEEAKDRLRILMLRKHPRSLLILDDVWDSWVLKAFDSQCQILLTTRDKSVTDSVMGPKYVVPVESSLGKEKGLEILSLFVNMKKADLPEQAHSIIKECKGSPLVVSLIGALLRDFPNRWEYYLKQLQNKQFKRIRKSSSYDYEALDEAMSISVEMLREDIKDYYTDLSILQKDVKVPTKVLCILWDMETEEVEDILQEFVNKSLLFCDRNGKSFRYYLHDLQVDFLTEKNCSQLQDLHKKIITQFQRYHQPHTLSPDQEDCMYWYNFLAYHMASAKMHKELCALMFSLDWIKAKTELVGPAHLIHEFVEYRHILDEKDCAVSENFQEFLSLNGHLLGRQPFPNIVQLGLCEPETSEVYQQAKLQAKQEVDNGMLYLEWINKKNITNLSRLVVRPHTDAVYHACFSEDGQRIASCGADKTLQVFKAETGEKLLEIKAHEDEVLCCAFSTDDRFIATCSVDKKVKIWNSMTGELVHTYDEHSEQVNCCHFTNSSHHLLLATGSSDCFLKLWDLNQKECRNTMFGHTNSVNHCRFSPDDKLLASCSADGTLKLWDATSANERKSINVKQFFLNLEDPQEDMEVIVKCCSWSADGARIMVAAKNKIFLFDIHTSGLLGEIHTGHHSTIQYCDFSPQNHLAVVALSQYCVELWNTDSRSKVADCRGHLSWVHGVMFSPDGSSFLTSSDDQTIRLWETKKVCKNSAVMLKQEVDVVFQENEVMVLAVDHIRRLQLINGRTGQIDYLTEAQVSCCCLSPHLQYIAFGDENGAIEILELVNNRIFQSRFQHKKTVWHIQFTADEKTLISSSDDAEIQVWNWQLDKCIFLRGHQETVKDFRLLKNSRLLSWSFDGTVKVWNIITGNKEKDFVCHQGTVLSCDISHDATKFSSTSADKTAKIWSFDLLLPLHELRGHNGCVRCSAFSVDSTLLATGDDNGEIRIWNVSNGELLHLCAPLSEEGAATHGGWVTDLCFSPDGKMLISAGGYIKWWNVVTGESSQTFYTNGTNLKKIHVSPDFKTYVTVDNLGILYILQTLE

[8] = biological target: Prothrombin (Bos taurus, UniProt P00735); assay: thrombin protease inhibitors – biochemical, fluorescence polarization, uHTS hits, dose response (AID 602369); format: functional
[9] = biological target: T4, Small ubiquitin-related modifier 1 (Homo sapiens, UniProt P63165); assay: SUMO1 protein interaction blockers, potency – biochemical, fluorescence polarization, uHTS hits, dose response (AID 624382); format: functional; details: read-out: IC50_Mean
[10] = biological target: T4, Small ubiquitin-related modifier 1; assay: SUMO1 protein-protein binding blockers, potency – biochemical, FRET, dose response (AID 624383); format: functional; details: read-out: IC50_Mean
[11] = biological target: T5, Rac GTPase-activating protein 1 (Homo sapiens, UniProt Q9H0H5); assay: blockers of MgcRacGAP-driven Rac1 GTP hydrolysis – biochemical, ADP Hunter fluorescence, primary and confirmatory, confirmation (AID 624330); format: functional
T5 sequence (Q9H0H5 whole entry): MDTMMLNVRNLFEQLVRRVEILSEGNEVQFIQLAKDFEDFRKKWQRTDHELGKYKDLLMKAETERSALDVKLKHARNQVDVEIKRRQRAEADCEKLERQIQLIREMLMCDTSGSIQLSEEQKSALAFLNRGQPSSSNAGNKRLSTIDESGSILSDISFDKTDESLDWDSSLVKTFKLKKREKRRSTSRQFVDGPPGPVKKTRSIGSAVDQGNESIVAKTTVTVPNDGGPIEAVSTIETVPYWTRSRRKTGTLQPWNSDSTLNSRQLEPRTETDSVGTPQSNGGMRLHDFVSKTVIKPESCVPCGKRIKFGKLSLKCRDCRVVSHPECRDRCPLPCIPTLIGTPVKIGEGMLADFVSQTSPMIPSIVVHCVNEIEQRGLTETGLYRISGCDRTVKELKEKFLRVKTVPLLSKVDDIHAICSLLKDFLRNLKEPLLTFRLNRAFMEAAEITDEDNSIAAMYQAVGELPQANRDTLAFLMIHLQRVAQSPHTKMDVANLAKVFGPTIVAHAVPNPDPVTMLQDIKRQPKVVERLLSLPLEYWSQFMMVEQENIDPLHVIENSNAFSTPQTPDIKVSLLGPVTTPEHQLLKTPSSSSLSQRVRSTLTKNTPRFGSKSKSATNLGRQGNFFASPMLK

T4 sequence (P63165 whole entry): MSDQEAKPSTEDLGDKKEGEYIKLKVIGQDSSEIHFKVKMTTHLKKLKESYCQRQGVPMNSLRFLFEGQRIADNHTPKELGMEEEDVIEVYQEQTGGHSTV

With `N=C(N)N/N=C/c1ccc(N(c2ccccc2)c2ccccc2)cc1` the EC50 [1] was 8.89 µM (active), the EC50 [2] was 2.39 µM (active) and the EC50 [3] was 5.12 µM (active). The CC50 [4] was 6.42 µM (active), the IC50 [5] was 3.85 µM (active) and the IC50 [6] was 8.24 µM (active). For the same compound, the IC50 [7] was 28.2 µM (active), the IC50 [8] was 41.8 µM (active) and the IC50 [9] was > 66.6 µM (inactive). For the same compound, the IC50 [10] was 8.67 µM (active) and the IC50 [11] was 60.7 µM (active).
